Source: patent US7030087B2, “Synthetic approach to designed chemical structures” (priority 1996, dated 2006)

Experiments:
EC (endothelial cells) = experiment: EC proliferation, 3[H]thymidine incorporation assay; type: cell-based
Procedure: (§1) Since the in vivo situation of tumor associated EC involves the low expression or even absence of ICAM-1, the next set of experiments aimed to study the ability to reinduce ICAM-I expression after bFBF preincubation. […] In these experiments, HUVEC were pretreated for 3 days with bFGF, subsequently PF4 was added for 3 days and, where indicated in the last 16 hours of culture 4 ng/ml TNFα was added. Human umbilical vein derived endothelial cells (HUVEC) were harvested from normal human umbilical cords by perfusion with 0.125% trypsin/EDTA as described previously. Cells were cultured in fibronectin (FN) coated tissue culture flasks in culture medium (RPMI-1640 with 20% human serum (HS), supplemented with 2 mM glutamine and 100 U/ml penicillin and 0.1 mg/ml streptomycin). Immunofluorescence using indirect PE-conjugated reagents required three separate incubations. 1×10^5 EC were fixed for 1 hour in 1% paraformaldehyde, resuspended in 20 μl appropriately diluted Mab and incubated for 1 hour on ice. Subsequently, cells were washed two times in PBS/BSA (0.1%) and incubated for another 30 minutes with biotinylated rabbit-anti-mouse Ig (Dako, Glostrup, Denmark). After another 2 washings, cells were incubated with streptavidin-phycoerythrin conjugate (Dako). Stained cells were analyzed on a FACScan flowcytometer. Data analysis was performed using PCLysys software (Becton Dickinson, Mountain View, Calif.). Statistical significance of observed differences was determined using the Student's t-test.
EC proliferation was measured using a ^3[H]thymidine incorporation assay. EC were seeded in flatbottomed 96-well tissue culture plates (5000 cells/well) and grown for 3 days, in culture medium. In some cultures the proliferation of EC was enhanced by incubation with 10 ng/ml bFGF. During the list 6 hours of the assay, the culture was pulsed with 0.5 μCi [methyl-^3H]thymidine/well. Results are expressed as the arithmetic mean counts per minute (cpm) of triplicate cultures.

ICAM-1 = ICAM-1 expression on endothelial cells (immunofluorescence, FACScan); type: cell-based, human; conditions: for bFGF mediated downregulation of ICAM-1 (in words): 10 ng/ml bFGF for 3 days, 100 μg/ml added simultaneously
Procedure: In a first series of experiments, PF4 and βpep peptides were tested for their ability to prevent bFGF (fibroblast growth factor) mediated downregulation of ICAM-1. […] Simultaneously 100 μg/ml of each PF4, βpep-14, βpep-16, or medium was added. Mean ICAM-1 fluorescence intensity values were determined.
as §1
The energy of EC to stimulation with inflammatory cytokines was the subject of a next series of experiments. For these experiments, HUVEC (human vascular endothelial cells) were pretreated with 10 ng/ml bFGF for 3 days. Subsequently, cells are subcultured for 3 days with […] in the presence of PF4. For the last 16 hours of the culture 4 ng/ml TNFα was added to induce upregulation of ICAM-1. […] The regulation of ICAM-1 at the protein level was confirmed in Northern blot analysis for detection of ICAM-1 message. In these experiments, HUVEC were cultured for 3 days with bFGF and treated for the last 4 and 24 hours with PF4 (100 μg/ml). TNFα was added 2 hours before isolation of RNA. RNA from a subconfluent EC cultures (75 cm^2 Petri-dishes) incubated with bFGF for different time-points was isolated using an RNA-zol kit (Campro Scientific, Houston, Tex.). Total RNA (10 μg) for each sample was separated in a 0.8% formaldehyde-denaturing gel, transferred to nitrocellulose (Hybond N+, Amersham International, Amersham, UK) and hybridized to a ^32P-labelled 1.9 Kb c-DNA probe, containing the functional sequence of the human ICAM-1 gene (a gift from Dr. B. Seed). Membranes were washed at a high stringency in 0.2×SSC, 0.1% SDS at 50° C. for 1 hour. Filters were exposed to X-ray films (Kodak X-omat, Eastman Kodak Company, Rochester, N.Y.) using an intensifying screen at −80° C. for not less than 12 hr. Autoradiograms were subjected to scanning using a laser densitometer (Model GS670, Bio-Rad, Hercules, Calif.) and data were analysed with the Molecular Analyst PC™ software. The intensity of the major ICAM-1 mRNA transcript was normalized with respect to actin mRNA expression used as a control.

[1] = system: endotoxin from E. coli 055:B5; experiment: Limulus amoebocyte lysate assay (E-TOXATE), endotoxin neutralization; type: biochemical; conditions: Table 4; for Endotoxin Neutralization, % neutralization: 5.0 × 10^−6 M Peptide, 0.02 U (0.2 pg) endotoxin from E. coli 055:B5; for Endotoxin Neutralization, % at the effective dose: at the Ed; for Endotoxin Neutralization, Ed, Effective M dose: dose at which the % in brackets was found
Procedure: The peptides were tested for their ability to neutralize endotoxin. Quantitative endotoxin activities for these peptides were measured by Limulus amoebocyte lysate assay.
Limulus amoebocyte lysate assay: The ability of synthetic peptides to neutralize endotoxin was detected with the E-TOXATE kit manufactured by Sigma Chemicals (St. Louis, Mo.). […] Peptide or B/PI was incubated with LPS at room temperature for 5 min in 100 ul of a 1:2 dilution of pyrogen-free saline (pH 6.4). The reaction was started by addition of 100 ul of amoebocyte lysate and the final volume was 200 ul. Assuming a 10,000 molecular weight for LPS, the approximate molar ration of B/PI:LPS at neutralization was 3000 to 1.
The peptides were tested according to the method provided above. […] BG38L was used as a positive control in these experiments.

P. aeruginosa = experiment: Bactericidal activity assay; type: cell-based, Pseudomonas aeruginosa type 1; conditions: for Bactericidal Activity, % killing: 1.2 × 10^−7 M Peptide, 5 × 105 P. aeruginosa; for Bactericidal Activity, % killing at the effective dose: at the Ed for the same peptide; for Bactericidal Activity, Ed, Effective M dose: dose at which the % in brackets was found
Description: Bacteria: P. aeruginosa type 1 is a clinical isolate maintained in the laboratory. The isolate remains a smooth strain and was serotyped by the scheme of Homma. The Pseudomonas strain was maintained by monthly transfer on blood agar plates.
The peptides can be assayed for bactericidal activity against a variety of organisms such as Pseudomonas aeruginosa type 1, P. cepacia ATCC 25608, E. coli B, and Staphylococcus aureus 502A by standard methods.
Pseudomonas aeruginosa type 1 is a clinical isolate. The isolate remains a smooth strain and was serotyped by the scheme of Homma (Jpn. J. Exp. Med. 46:329, 1976). A rough strain, E. coli B and S. aureus 502A were obtained from Paul Quie, University of Minnesota (Minneapolis, Minn.). The characteristics of the S. aureus strain have been described by Shinefield et al. (Amer. J. Dis. Chil. 105:646, 1963). Pseudomonas cepacia ATCC 25608 can be purchased from the ATCC. S. aureus and E. coli were maintained on nutrient agar plates and the Pseudomonas strains were maintained on blood agar plates.
Pyrogen-free solutions were used throughout the assay and all methods that follow. Log phase bacteria were prepared from a culture in brain heart infusion broth (Hovde et al. Infect. Immun. 54:142–148, 1986) and bacteria were washed and resuspended in saline with adjustment to an optical density at 650 nm to provide a yield of about 3×10^8 CFU/ml. Bacteria were diluted 1:10 in 0.08M citrate phosphate buffer, pH 5.6 or pH 7.0, for use in the assay. S. aureus rapidly lost viability in the pH 5.6 buffer and was studied only at pH 7.0. Bactericidal activity was determined by dose response over peptide concentrations ranging from about […] to about 4.1×10^−9M. Bactericidal activity was determined by dose response, preferably determining LD50 by linear regression.

[2] = system: endothelial cells (FBHEC, HUVEC); experiment: Endothelial cell proliferation assay of βpeptides 1–24 (FIG. 7); type: cell-based
Procedure: FIG. […] FIG. 7A provides ^3H-Thymidine incorporation data for FBHEC cells and FIG. 7B provides ^3H-Thymidine incorporation data for HUVEC cells.
βpeptides 1–24 were tested in an endothelial cell proliferation assay using ^3H-thymidine incorporation. […]

[3] = expt 2 (first, r11), 1 μg/ml, 10 ng/ml bFGF, medium 29079 ± 2506
[4] = expt 2 (first, r11), 1 μg/ml, no bFGF, medium 14296 ± 2490
[5] = expt 2 (first, r11), 10 μg/ml, 10 ng/ml bFGF, medium 29079 ± 2506
[6] = expt 2 (first, r11), 10 μg/ml, no bFGF, medium 14296 ± 2490
[7] = expt 2 (first, r11), 100 μg/ml, 10 ng/ml bFGF, medium 29079 ± 2506
[8] = expt 2 (first, r11), 100 μg/ml, no bFGF, medium 14296 ± 2490
[9] = expt 2 (second, r19), 1 μg/ml, 10 ng/ml bFGF, medium 52808 ± 4092
[10] = expt 2 (second, r19), 1 μg/ml, no bFGF, medium 6780 ± 713
[11] = expt 2 (second, r19), 10 μg/ml, 10 ng/ml bFGF, medium 52808 ± 4092
[12] = expt 2 (second, r19), 10 μg/ml, no bFGF, medium 6780 ± 713
[13] = expt 2 (second, r19), 100 μg/ml, 10 ng/ml bFGF, medium 52808 ± 4092
[14] = expt 2 (second, r19), 100 μg/ml, no bFGF, medium 6780 ± 713

O=C1CCC(N2C(=O)c3ccccc3C2=O)C(=O)N1 (stereo not drawn) [thalidomide, reference compound]
EC growth in vitro (in words) (EC (endothelial cells)): do not affect EC growth in vitro | effect of other inhibitors of angiogenesis on ICAM-1 expression (in words) (ICAM-1): did not affect ICAM-1 expression

SIQDLNVSMKLFRKQAKWKIIAKLNDGRELSLD [βpep-16]
EC proliferation in vitro (in words) (EC (endothelial cells)): angiostatic | (3H)-thymidine incorporation (EC (endothelial cells); [3]): 35447 ± 2621 cpm | (3H)-thymidine incorporation (EC (endothelial cells); [4]): 15039 ± 2020 cpm | (3H)-thymidine incorporation (EC (endothelial cells); [5]): 33663 ± 2572 cpm | (3H)-thymidine incorporation (EC (endothelial cells); [6]): 11881 ± 2545 cpm | (3H)-thymidine incorporation (EC (endothelial cells); [7]): 7852 ± 875 cpm | (3H)-thymidine incorporation (EC (endothelial cells); [8]): 4929 ± 749 cpm | (3H)-thymidine incorporation (EC (endothelial cells); [9]): 47727 ± 447 cpm | (3H)-thymidine incorporation (EC (endothelial cells); [10]): 7450 ± 737 cpm | (3H)-thymidine incorporation (EC (endothelial cells); [11]): 44919 ± 2081 cpm | (3H)-thymidine incorporation (EC (endothelial cells); [12]): 6148 ± 1370 cpm | (3H)-thymidine incorporation (EC (endothelial cells); [13]): 27071 ± 3277 cpm | (3H)-thymidine incorporation (EC (endothelial cells); [14]): 2669 ± 370 cpm | Endotoxin Neutralization, % neutralization [1]: 100% | Endotoxin Neutralization, % at the effective dose [1]: 16.5% | Endotoxin Neutralization, Ed, Effective M dose [1]: 1.2 µM | Bactericidal Activity, % killing (P. aeruginosa): 0% | Bactericidal Activity, % killing at the effective dose (P. aeruginosa): 24.3% | Bactericidal Activity, Ed, Effective M dose (P. aeruginosa): 960 nM | bFGF mediated downregulation of ICAM-1 (in words) (ICAM-1): complete block of bFGF mediated downregulation

SIQDLNVSMKLFRKQAKWKLIVKLNDGRELSLD [βpep-14]
EC proliferation in vitro (in words) (EC (endothelial cells)): angiostatic | (3H)-thymidine incorporation (EC (endothelial cells); [3]): 28695 ± 1062 cpm | (3H)-thymidine incorporation (EC (endothelial cells); [4]): 14184 ± 1775 cpm | (3H)-thymidine incorporation (EC (endothelial cells); [5]): 29530 ± 1608 cpm | (3H)-thymidine incorporation (EC (endothelial cells); [6]): 9886 ± 2114 cpm | (3H)-thymidine incorporation (EC (endothelial cells); [7]): 6585 ± 132 cpm | (3H)-thymidine incorporation (EC (endothelial cells); [8]): 3774 ± 299 cpm | (3H)-thymidine incorporation (EC (endothelial cells); [9]): 48443 ± 2700 cpm | (3H)-thymidine incorporation (EC (endothelial cells); [10]): 7214 ± 1668 cpm | (3H)-thymidine incorporation (EC (endothelial cells); [11]): 52126 ± 1258 cpm | (3H)-thymidine incorporation (EC (endothelial cells); [12]): 6074 ± 899 cpm | (3H)-thymidine incorporation (EC (endothelial cells); [13]): 7663 ± 715 cpm | (3H)-thymidine incorporation (EC (endothelial cells); [14]): 1062 ± 325 cpm | Endotoxin Neutralization, % neutralization [1]: 38.8 n = 1% | Bactericidal Activity, % killing (P. aeruginosa): 0% | Bactericidal Activity, % killing at the effective dose (P. aeruginosa): 39.9% | Bactericidal Activity, Ed, Effective M dose (P. aeruginosa): 960 nM | bFGF mediated downregulation of ICAM-1 (in words) (ICAM-1): complete block of bFGF mediated downregulation

SIQFLKVSLNLDRKQAKWKIIVKLNDGRELSLD [βpep-24]
control of endothelial cell proliferation (in words) [2]: very good at controlling cell proliferation | effectiveness at decreasing endothelial cell growth ([2]; 0.26 micromolar): about 30%

SIQKLNVSMKLFRKQAKWKIIVKLNDGRELSLD [βpep-19]
Endotoxin Neutralization, % neutralization [1]: 0% | Endotoxin Neutralization, % at the effective dose [1]: 12.4% | Endotoxin Neutralization, Ed, Effective M dose [1]: 16 µM | bactericidal activity (in words) (P. aeruginosa): greatest bactericidal activity | Bactericidal Activity, % killing (P. aeruginosa): 62.5, n = 2%

interferon-γ inducible protein-10 [IP-10]
(3H)-thymidine incorporation (EC (endothelial cells); expt 3, 100 μg/ml, 10 ng/ml bFGF, medium 3432 ± 232): 725 ± 95 cpm | effect of other inhibitors of angiogenesis on ICAM-1 expression (in words) (ICAM-1): same results

thrombospondin-1 [TSP-1]
(3H)-thymidine incorporation (EC (endothelial cells); expt 4, 10 μg/ml, 10 ng/ml bFGF, medium 31954 ± 1220): 22338 ± 860 cpm | (3H)-thymidine incorporation (EC (endothelial cells); expt 4, 10 μg/ml, no bFGF, medium 18904 ± 1501): 8865 ± 639 cpm | (3H)-thymidine incorporation (EC (endothelial cells); expt 4, 25 μg/ml, 10 ng/ml bFGF, medium 31954 ± 1220): 10267 ± 797 cpm | (3H)-thymidine incorporation (EC (endothelial cells); expt 4, 25 μg/ml, no bFGF, medium 18904 ± 1501): 5565 ± 349 cpm | effect of other inhibitors of angiogenesis on ICAM-1 expression (in words) (ICAM-1): same results
